From patent publication US4206125A, “5-[2-[(2,3-Dihydro-1,4-benzodioxan-2-ylmethyl)amino]-1-hydrox yethyl]-2-hydroxybenzoic acid derivatives” (Richardson-Merrell Inc., priority 1979, dated 1980) come the findings set out here.

The test system of one test is α-Adrenergic receptor. As to the kind of experiment: α-Adrenergic receptor blocking activity, isolated rabbit aortic strip, norepinephrine as agonist. In kind it is cell-based. The conditions noted are these: contractile response. As to the method: α-Adrenergic receptor blocking activity is determined in vitro by performing cumulative dose-response experiments in the isolated rabbit aortic strip preparation using norepinephrine as the agonist. The contractile response of the rabbit strip preparation in the presence of logarithmically increasing concentrations of the compounds being tested are expressed as percent of the maximal attainable response. Relative antagonistic potency is expressed as a pA2 value.

Another test has as its target T1, β-Adrenergic receptor (Cavia porcellus, UniProt H0W3H1).
T1 construct: isolated guinea pig atria preparation; from tissue; host or cells: isolated guinea pig atria
As to the kind of experiment: β-Adrenergic receptor blocking activity, isolated guinea pig atria, isoproterenol as agonist. In kind it is cell-based. The conditions noted are these: increase in rate, read-out: pA2 value (β-adrenergic receptor blocking activity) (converted). As to the method:
β-Adrenergic receptor blocking activity is determined in vitro by performing cumulative dose-response experiments in the isolated guinea pig atria preparation using isoproterenol as the agonist. The response (increase in rate) of the guinea pig atria preparation in the presence of logarithmically increasing concentrations of the compounds being tested are expressed as percent of the maximal attainable response. Relative antagonistic potency is expressed as a pA2 value, as defined above.

Test [1] relates to systolic blood pressure of spontaneously hypertensive rats (SHR). Description: Antihypertensive activity in spontaneously hypertensive rats (SHR). The conditions noted are these: SHR Okomoto-Aoki strain; oral dose of 50 mg/kg; one hour following administration. In kind it is in vivo, rat. As to the method: Antihypertensive activity is determined in spontaneously hypertensive rats (SHR) of the Okomoto-Aoki strain. Systolic blood pressure of the SHR is measured from the caudal artery by means of an indirect method utilizing a photocell transducer/trail cuff occluder system. Time response relationships are determined for each compound following an oral dose of 50 mg/kg. Data are expressed as mm of Hg decrease from control values. Statistical significance is determined using a 2 tailed "t" test comparing drug treatment response values to those obtained from concurrent vehicle treated animals. Under these conditions the compound 5-[2-[(2,3-dihydro-1,4-benzodioxan-2-ylmethyl)amino]-1-hydroxyethyl]-2-hydroxybenzamide lowered blood pressure by 24 mm of Hg one hour following administration of the drug substance.

T1 sequence (H0W3H1 1-470): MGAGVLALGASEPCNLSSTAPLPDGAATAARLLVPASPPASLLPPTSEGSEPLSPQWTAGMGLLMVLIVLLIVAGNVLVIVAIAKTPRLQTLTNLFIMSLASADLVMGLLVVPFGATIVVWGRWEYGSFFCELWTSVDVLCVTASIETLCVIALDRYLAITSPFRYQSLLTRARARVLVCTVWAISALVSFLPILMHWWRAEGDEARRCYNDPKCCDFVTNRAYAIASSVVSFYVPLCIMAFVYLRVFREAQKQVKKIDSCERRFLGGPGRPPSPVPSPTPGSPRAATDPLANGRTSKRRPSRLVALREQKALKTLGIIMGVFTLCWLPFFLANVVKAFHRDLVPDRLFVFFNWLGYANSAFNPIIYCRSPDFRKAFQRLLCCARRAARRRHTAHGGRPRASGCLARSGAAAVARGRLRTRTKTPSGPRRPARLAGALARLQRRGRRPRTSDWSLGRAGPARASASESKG

Take `NC(=O)c1cc(C(O)CNCC2COc3ccccc3O2)ccc1O` (stereo not drawn) [5-[2-[(2,3-dihydro-1,4-benzodioxan-2-ylmethyl)amino]-1-hydroxyethyl]-2-hydroxybenzamide]: the “pA2 value (α-adrenergic receptor blocking activity)” value with α-Adrenergic receptor is 6.20. For the same compound, at β-Adrenergic receptor, the Kb is 1450 nM. In test [1], the “systolic blood pressure decrease from control values” is 24 mm of Hg.
